Measured values: US20240287080A1 (IDEAYA Biosciences Inc., priority 2021, published 2024)

Target: T1, Pol theta (1-899) (Homo sapiens, UniProt O75417)
T1 construct: Pol theta (1-899) (5 nM) in assay buffer
Assay: Pol theta ATPase activity, NADH oxidation-coupled enzymatic assay (ATPase NADH coupling: Standard Screening: hPolQ)
Type: biochemical
Conditions: Pol theta (1-899) 5 nM
Method in brief: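 Rates of ATP hydrolysis taken from 60-min A340 traces of NADH oxidation via PK/LDH coupling, then fit four-parameter for IC50, Hill slope and max inhibition. Enzyme (5 nM, 1-899) and compounds preincubated 15 min before ATP 100 μM and 50-thymine ssDNA 300 nM (stock, equal volume added).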

[1] = NADH oxidation-coupled ATPase assay, compounds of Table 3

T1 sequence (O75417 1-899): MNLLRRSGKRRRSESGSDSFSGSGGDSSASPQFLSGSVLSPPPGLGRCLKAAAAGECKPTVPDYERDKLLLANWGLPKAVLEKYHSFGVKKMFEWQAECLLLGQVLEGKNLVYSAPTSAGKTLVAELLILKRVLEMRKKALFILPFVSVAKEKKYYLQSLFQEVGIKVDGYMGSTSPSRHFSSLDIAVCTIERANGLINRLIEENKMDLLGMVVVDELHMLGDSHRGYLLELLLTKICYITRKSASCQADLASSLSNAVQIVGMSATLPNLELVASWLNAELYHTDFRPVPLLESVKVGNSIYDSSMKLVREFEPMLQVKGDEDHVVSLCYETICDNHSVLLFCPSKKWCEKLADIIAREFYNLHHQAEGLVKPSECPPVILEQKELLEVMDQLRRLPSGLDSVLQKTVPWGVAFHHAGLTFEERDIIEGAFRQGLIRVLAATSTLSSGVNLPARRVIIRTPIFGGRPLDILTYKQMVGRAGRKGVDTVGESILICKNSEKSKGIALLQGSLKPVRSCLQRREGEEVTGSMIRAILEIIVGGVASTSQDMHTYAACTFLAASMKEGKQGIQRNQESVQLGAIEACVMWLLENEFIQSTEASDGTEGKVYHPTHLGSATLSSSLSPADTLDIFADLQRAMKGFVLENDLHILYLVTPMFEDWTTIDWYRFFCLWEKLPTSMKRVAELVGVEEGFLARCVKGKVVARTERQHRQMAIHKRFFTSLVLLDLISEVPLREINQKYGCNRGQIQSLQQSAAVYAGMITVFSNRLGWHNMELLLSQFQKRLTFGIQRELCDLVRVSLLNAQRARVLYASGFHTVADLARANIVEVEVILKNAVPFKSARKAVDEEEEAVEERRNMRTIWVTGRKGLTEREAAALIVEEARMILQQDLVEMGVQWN

Structure (SMILES) | IC50 [1] [nM] | IC50 (Table 5, ATP, dT50 ssDNA) [nM] | also measured
COc1cnc(Cl)c(F)c1-c1cc(C)ncc1C(=O)Nc1nnc(OC2COC2)s1 [Example 60, 2′-chloro-3′-fluoro-5′-methoxy-6-methyl-N-(5-(oxetan-3-yloxy)-1,3,4-thiadiazol-2-yl)-(4,4′-bipyridine)-3-carboxamide] | – | – | IC50 (Table 4, ATP, dT50 ssDNA): ≤ 200 nM
COc1nnc(NC(=O)c2cnc(C)cc2-c2c(C)n[nH]c2C)s1 [Example 40, 4-(3,5-dimethyl-1H-pyrazol-4-yl)-N-(5-methoxy-1,3,4-thiadiazol-2-yl)-6-methylnicotinamide] | – | – | IC50 (Table 4, ATP, dT50 ssDNA): 1000 to 10000 nM
COc1nnc(NC(=O)c2cnc(C)cc2-c2cccc(N3CCCCC3)c2)s1 [Example 478, N-(5-methoxy-1,3,4-thiadiazol-2-yl)-6-methyl-4-[3-(piperidin-1-yl)phenyl]pyridine-3-carboxamide] | 1000 to 10000 | – | –
COc1nnc(NC(=O)c2cnc(C)cc2-c2ccc(C(=O)O)cc2)s1 [Example 366, 4-(5-((5-methoxy-1,3,4-thiadiazol-2-yl)carbamoyl)-2-methylpyridin-4-yl)benzoic acid] | 1000 to 10000 | – | –
COc1nnc(NC(=O)c2cnc(C)cc2-c2cc(F)cc(C#N)c2)s1 [Example 439, 4-(3-cyano-5-fluorophenyl)-N-(5-methoxy-1,3,4-thiadiazol-2-yl)-6-methylpyridine-3-carboxamide] | 500 to 1000 | – | –
COc1cnc(Cl)cc1-c1cc(C)ncc1C(=O)Nc1nnc(O[C@H]2CC[C@H](O)CC2)s1 (single isomer, unassigned) [Example 27, 2′-chloro-N-(5-(((1r,4r)-4-hydroxycyclohexyl)oxy)-1,3,4-thiadiazol-2-yl)-5′-methoxy-6-methyl-[4,4′-bipyridine]-3-carboxamide] | – | – | IC50 (Table 4, ATP, dT50 ssDNA): ≤ 200 nM
COc1cnc(Cl)cc1-c1cc(C)ncc1C(=O)Nc1nnc(O[C@H]2CC[C@H]2O)s1 (racemic) [Example 112, rac-2′-chloro-N-(5-((1R,2S)-2-hydroxycyclobutoxy)-1,3,4-thiadiazol-2-yl)-5′-methoxy-6-methyl-(4,4′-bipyridine)-3-carboxamide] | – | 200 to 500 | –
COc1nnc(NC(=O)c2cnc(C)cc2-c2cnc3ccccc3c2)s1 [Example 394, N-(5-methoxy-1,3,4-thiadiazol-2-yl)-6-methyl-4-(quinolin-3-yl)pyridine-3-carboxamide] | 1000 to 10000 | – | –
COc1nnc(NC(=O)c2cnc(C)cc2-c2cccc(-c3ccn(C)n3)c2)s1 [Example 453, N-(5-methoxy-1,3,4-thiadiazol-2-yl)-6-methyl-4-[3-(1-methyl-1H-pyrazol-3-yl)phenyl]pyridine-3-carboxamide] | 1000 to 10000 | – | –
CCc1cc(C(=O)Nc2nnc(OC)s2)c(-c2cc(Cl)ncc2OC)cn1 [Example 270, 2′-chloro-6-ethyl-5′-methoxy-N-(5-methoxy-1,3,4-thiadiazol-2-yl)-[3,4′-bipyridine]-4-carboxamide] | 200 to 500 | – | –
COc1nnc(NC(=O)c2cnc(C)cc2-c2cscc2C#N)s1 [Example 442, 4-(4-cyanothiophen-3-yl)-N-(5-methoxy-1,3,4-thiadiazol-2-yl)-6-methylpyridine-3-carboxamide] | 1000 to 10000 | – | –
COCCOc1cccc(-c2cc(C)ncc2C(=O)Nc2nnc(OC)s2)c1 [Example 429, N-(5-methoxy-1,3,4-thiadiazol-2-yl)-4-[3-(2-methoxyethoxy)phenyl]-6-methylpyridine-3-carboxamide] | 1000 to 10000 | – | –
COc1nnc(NC(=O)c2cnc(C)cc2-c2cccn3nnnc23)s1 [Example 85, N-(5-methoxy-1,3,4-thiadiazol-2-yl)-6-methyl-4-(tetrazolo(1,5-a)pyridin-8-yl)nicotinamide] | – | 1000 to 10000 | –
COc1cnc(Cl)cc1-c1cc(C)ncc1C(=O)Nc1nnc(O[C@H]2C[C@@H](O)C2)s1 [Example 15, 2′-chloro-N-(5-((1s,3s)-3-hydroxycyclobutoxy)-1,3,4-thiadiazol-2-yl)-5′-methoxy-6-methyl-(4,4′-bipyridine)-3-carboxamide] | – | – | IC50 (Table 4, ATP, dT50 ssDNA): ≤ 200 nM
COc1cnc(Cl)cc1-c1cc(C)ncc1C(=O)Nc1nnc(O)s1 [Example 31, 2′-chloro-N-(5-hydroxy-1,3,4-thiadiazol-2-yl)-5′-methoxy-6-methyl-(4,4′-bipyridine)-3-carboxamide] | – | – | IC50 (Table 4, ATP, dT50 ssDNA): 200 to 500 nM
COc1nnc(NC(=O)c2cnc(C)cc2-c2cccc(N(C)C)c2)s1 [Example 412, 4-[3-(dimethylamino)phenyl]-N-(5-methoxy-1,3,4-thiadiazol-2-yl)-6-methylpyridine-3-carboxamide] | 1000 to 10000 | – | –
COc1nnc(NC(=O)c2cnc(C)cc2-c2cc(C)cc(C)c2)s1 [Example 358, 4-(3,5-dimethylphenyl)-N-(5-methoxy-1,3,4-thiadiazol-2-yl)-6-methylpyridine-3-carboxamide] | 500 to 1000 | – | –
COc1cnc(Cl)cc1-c1cc(C)ncc1C(=O)Nc1nnc(OCC(C)C)s1 [Example 21, 2′-chloro-N-(5-isobutoxy-1,3,4-thiadiazol-2-yl)-5′-methoxy-6-methyl-(4,4′-bipyridine)-3-carboxamide] | – | – | IC50 (Table 4, ATP, dT50 ssDNA): ≤ 200 nM
COc1nnc(NC(=O)c2cnc(C)cc2-c2cc(C(F)F)ncc2OC)s1 [Example 70, 2′-(difluoromethyl)-5′-methoxy-N-(5-methoxy-1,3,4-thiadiazol-2-yl)-6-methyl-(4,4′-bipyridine)-3-carboxamide] | – | – | IC50 (Table 4, ATP, dT50 ssDNA): ≤ 200 nM
COc1nnc(NC(=O)c2cnc(C)cc2-c2cnc3[nH]ccc3c2)s1 [Example 399, N-(5-methoxy-1,3,4-thiadiazol-2-yl)-6-methyl-4-{1H-pyrrolo[2,3-b]pyridin-5-yl}pyridine-3-carboxamide] | 1000 to 10000 | – | –
COc1nnc(NC(=O)c2cnc(C)cc2-c2ccc3nscc3c2)s1 [Example 105, 4-(benzo(c)isothiazol-5-yl)-N-(5-methoxy-1,3,4-thiadiazol-2-yl)-6-methylnicotinamide] | – | 1000 to 10000 | –
COc1nnc(NC(=O)c2cnc(C)cc2-c2ccc3cn(C)nc3c2)s1 [Example 417, N-(5-methoxy-1,3,4-thiadiazol-2-yl)-6-methyl-4-(2-methyl-2H-indazol-6-yl)nicotinamide] | 1000 to 10000 | – | –
COc1cnc(Cl)cc1-c1cc(C)ncc1C(=O)Nc1nnc(O[C@@H]2CCOC2)s1 [Example 23, (R)-2′-chloro-5′-methoxy-6-methyl-N-(5-((tetrahydrofuran-3-yl)oxy)-1,3,4-thiadiazol-2-yl)-(4,4′-bipyridine)-3-carboxamide] | – | – | IC50 (Table 4, ATP, dT50 ssDNA): ≤ 200 nM
COc1cnc(Cl)cc1-c1cc(C)ncc1C(=O)Nc1nnc(O[C@@H]2CO[C@H]3OCC[C@H]32)s1 (single isomer, unassigned) [Example 305] | ≤ 200 | – | –
COc1nnc(NC(=O)c2cnc(C)cc2-c2ccnc3ncnn23)s1 [Example 91, 4-((1,2,4)triazolo(1,5-a)pyrimidin-7-yl)-N-(5-methoxy-1,3,4-thiadiazol-2-yl)-6-methylnicotinamide] | – | 1000 to 10000 | –
COc1cnc(Cl)cc1-c1cc(C2CCCC2)ncc1C(=O)Nc1nnc(O[C@@H]2CCOC2)s1 [Example 134, (R)-2′-chloro-6-cyclopentyl-5′-methoxy-N-(5-((tetrahydrofuran-3-yl)oxy)-1,3,4-thiadiazol-2-yl)-(4,4′-bipyridine)-3-carboxamide] | – | 500 to 1000 | –

Now from value to compound, other results behind:

IC50 [1] [nM] | IC50 (Table 5, ATP, dT50 ssDNA) [nM] | Structure (SMILES) | also measured
≤ 200 | – | COc1cnc(C)c(F)c1-c1cc(C)ncc1C(=O)Nc1nnc(OC2([C@H]3CCOC3)CC2)s1 (single isomer, unassigned) [Example 287] | –
– | ≤ 200 | COc1cnc(Cl)cc1-c1cc(C)ncc1C(=O)Nc1nnc(O[C@@H]2CO[C@H](C)C2)s1 (single isomer, unassigned) [Example 189] | –
≤ 200 | – | COc1cnc(C)c(F)c1-c1cc(C)ncc1C(=O)Nc1nnc(O[C@@H]2CO[C@H]3OCC[C@H]32)s1 (single isomer, unassigned) [Example 304] | –
– | ≤ 200 | COc1cnc(Cl)cc1-c1cc(C)ncc1C(=O)Nc1nnc(O[C@@H]2C[C@H]3CC[C@@H]2O3)s1 (single isomer, unassigned) [Example 216] | –
≤ 200 | – | COc1cnc(Br)cc1-c1cc(C)ncc1C(=O)Nc1nnc(O[C@H]2CC[C@@H](CO)CC2)s1 [Example 268, 2′-bromo-N-(5-(((1s,4s)-4-(hydroxymethyl)cyclohexyl)oxy)-1,3,4-thiadiazol-2-yl)-5′-methoxy-6-methyl-[4,4′-bipyridine]-3-carboxamide] | –
– | ≤ 200 | COc1cnc(Cl)cc1-c1cc(C)ncc1C(=O)Nc1nnc(O[C@@H]2CC[C@H]2O)s1 (single isomer, unassigned) [Example 118] | –
– | ≤ 200 | COc1cnc(Br)cc1-c1cc(C)ncc1C(=O)Nc1nnc(O[C@@H]2COC3(CC3)C2)s1 (single isomer, unassigned) [Example 226] | –
200 to 500 | – | COc1cnc(Cl)cc1-c1cc(C)ncc1C(=O)Nc1nnc(O[C@@H]2C[C@H](F)CN(C(C)C)C2)s1 (single isomer, unassigned) [Example 283] | –
– | ≤ 200 | COc1cnc(C)c(F)c1-c1cc(C)ncc1C(=O)Nc1nnc(O[C@@H]2C[C@H]3CC[C@@H]2O3)s1 (single isomer, unassigned) [Example 218] | –
– | ≤ 200 | COc1cnc(C)c(F)c1-c1cc(C)ncc1C(=O)Nc1nnc(O[C@H]2CC[C@](C)(O)CC2)s1 (single isomer, unassigned) [Example 224, 3′-fluoro-N-(5-(((1r,4r)-4-hydroxy-4-methylcyclohexyl)oxy)-1,3,4-thiadiazol-2-yl)-5′-methoxy-2′,6-dimethyl-(4,4′-bipyridine)-3-carboxamide] | –
– | ≤ 200 | COc1cnc(Cl)cc1-c1cc(C)ncc1C(=O)Nc1nnc(O[C@H]2CC[C@@H](CO)CC2)s1 [Example 169, 2′-chloro-N-(5-(((1s,4s)-4-(hydroxymethyl)cyclohexyl)oxy)-1,3,4-thiadiazol-2-yl)-5′-methoxy-6-methyl-(4,4′-bipyridine)-3-carboxamide] | –
≤ 200 | – | COc1cnc(C)c(F)c1-c1cc(C)ncc1C(=O)Nc1nnc(O[C@@H]2CCC[C@@H](O)C2)s1 (single isomer, unassigned) [Example 274] | –
